From patent publication US20050107353A1, “Methods of treating lower urinary tract disorders using losigamone” (Dynogen Pharmaceuticals, Inc., priority 2003, published 2005) come the findings set out here.

“Also recorded” adds a separate entry of the source.

Assay [1] has as its system activity dependent sodium currents in bladder DRG neurons. Description: Use-dependent effect on sodium currents in bladder DRG neurons, slow versus fast stimulation. It counts as cell-based, rat. The note with it: 100 μM, steps from −50 to 0 mV, three neurons. The procedure:
Labeling of bladder afferent neurons: Adult female Sprague-Dawley rats (150-300 g) were deeply anesthetized with pentobarbital anesthesia and placed on isoflurane maintenance anesthesia. A ventral midline incision was made through the abdominal skin and musculature, exposing the urinary bladder. Five injections of the fluorescent dye Di-I (5 μl each of 25 mg/ml Di-I in DMSO) or Fast Blue (4% w/v) were made into the bladder smooth muscle wall to label primary afferent fibers innervating the bladder. The area was rinsed with sterile saline to eliminate nonspecific spread of dye, and the incision was closed. Rats recovered for 5-12 days to allow for transport of fluorescent dye from distal terminals to the cell somata of dorsal root ganglion (DRG) neurons. Labeled neurons were identified in vitro using fluorescence optics. […]
Sodium currents were recorded from DRG neurons using standard electrophysiologic protocols. […] Currents were recorded using a patch-clamp amplifier and digitized at 3-10 kHz for acquisition. Neuronal input resistance and membrane capacitance were determined from the amplitude and kinetics of the current response to a voltage pulse from a holding potential of −50 mV. […] For all cell types, baseline responses were recorded for a minimum of 10 min to ensure that the kinetics of the response was stable. […]

Assay [2] relates to acetic acid-induced reduction of bladder capacity. Description: Dilute acetic acid model: bladder capacity by filling cystometry during continuous intravesical acetic acid irritation. Conditions: intraduodenal; for effect on bladder capacity (reversal of acetic acid-induced reduction): increasing doses, rats during continuous irritation. In kind it is in vivo, rat. The source says: The objective of the current study was to determine the effect of TTX-R sodium channel modulators or use dependent sodium channel modulators on the ability to reverse the reduction in bladder capacity seen following continuous infusion of dilute acetic acid, a commonly used model of lower urinary tract disorders including overactive bladder.
Animal Preparation: Female rats (250-275 g BW) were anesthetized with urethane (1.2 g/kg) and a saline-filled catheter (PE-50) was inserted into either the jugular vein for intravenous (i.v.; saline vehicle) or the proximal duodenum for intraduodenal (i.d.; distilled water or 10% Tween 80 in saline as vehicle) drug administration. Via a midline lower abdominal incision, a flared-tipped PE 50 catheter was inserted into the bladder dome for bladder filling and pressure recording and secured by ligation. The abdominal cavity was moistened with saline and closed by covering with a thin plastic sheet in order to maintain access to the bladder for emptying purposes. Fine silver or stainless steel wire electrodes were inserted into the external urethral sphincter (EUS) percutaneously for electromyography (EMG).
Experimental Design: Saline was continuously infused at a rate of 0.055 ml/min via the bladder filling catheter for ≧60 minutes to obtain a baseline of lower urinary tract activity (continuous cystometry; CMG). Following the control period, a 0.25% acetic acid solution in saline was infused into the bladder at the same flow rate to induce bladder irritation. Following 30 minutes of AA infusion, 3 vehicle injections were made at 20 minute intervals to determine vehicle effects, if any. Subsequently, increasing doses (2-5) of Na^+ channel blocking compound were administered intravenously or intraduodenaly at half-log order increments at 30 or 60 minute intervals in order to construct a cumulative dose-response relationship. At the end of the control saline cystometry period, the third vehicle, and 20-50 minutes following each subsequent treatment, the infusion pump was stopped, the bladder was emptied by fluid withdrawal via the infusion catheter and a single filling cystometrogram was performed at the same flow rate in order to determine changes in bladder capacity caused by the irritation protocol and subsequent intravenous or intraduodenal drug administration.
Data were analyzed by non-parametric ANOVA for repeated measures (Friedman Test) with Dunn's Multiple Comparison test. All comparisons were made from the last vehicle measurement (AA/Veh 3) or the lowest dose of drug. P<0.050 was considered significant.

The target of assay [3] is T1, TTX-R sodium currents in bladder afferent neurons (Rattus norvegicus, UniProt Q62968).
T1 construct: Whole cell patch-clamp recordings were obtained from dye-labeled DRG neurons; endogenous in cells; host or cells: primary dissociated L6/S1 dorsal root ganglion neurons of Sprague-Dawley rats, dye-labelled bladder afferents
T1 sequence (Q62968 whole entry): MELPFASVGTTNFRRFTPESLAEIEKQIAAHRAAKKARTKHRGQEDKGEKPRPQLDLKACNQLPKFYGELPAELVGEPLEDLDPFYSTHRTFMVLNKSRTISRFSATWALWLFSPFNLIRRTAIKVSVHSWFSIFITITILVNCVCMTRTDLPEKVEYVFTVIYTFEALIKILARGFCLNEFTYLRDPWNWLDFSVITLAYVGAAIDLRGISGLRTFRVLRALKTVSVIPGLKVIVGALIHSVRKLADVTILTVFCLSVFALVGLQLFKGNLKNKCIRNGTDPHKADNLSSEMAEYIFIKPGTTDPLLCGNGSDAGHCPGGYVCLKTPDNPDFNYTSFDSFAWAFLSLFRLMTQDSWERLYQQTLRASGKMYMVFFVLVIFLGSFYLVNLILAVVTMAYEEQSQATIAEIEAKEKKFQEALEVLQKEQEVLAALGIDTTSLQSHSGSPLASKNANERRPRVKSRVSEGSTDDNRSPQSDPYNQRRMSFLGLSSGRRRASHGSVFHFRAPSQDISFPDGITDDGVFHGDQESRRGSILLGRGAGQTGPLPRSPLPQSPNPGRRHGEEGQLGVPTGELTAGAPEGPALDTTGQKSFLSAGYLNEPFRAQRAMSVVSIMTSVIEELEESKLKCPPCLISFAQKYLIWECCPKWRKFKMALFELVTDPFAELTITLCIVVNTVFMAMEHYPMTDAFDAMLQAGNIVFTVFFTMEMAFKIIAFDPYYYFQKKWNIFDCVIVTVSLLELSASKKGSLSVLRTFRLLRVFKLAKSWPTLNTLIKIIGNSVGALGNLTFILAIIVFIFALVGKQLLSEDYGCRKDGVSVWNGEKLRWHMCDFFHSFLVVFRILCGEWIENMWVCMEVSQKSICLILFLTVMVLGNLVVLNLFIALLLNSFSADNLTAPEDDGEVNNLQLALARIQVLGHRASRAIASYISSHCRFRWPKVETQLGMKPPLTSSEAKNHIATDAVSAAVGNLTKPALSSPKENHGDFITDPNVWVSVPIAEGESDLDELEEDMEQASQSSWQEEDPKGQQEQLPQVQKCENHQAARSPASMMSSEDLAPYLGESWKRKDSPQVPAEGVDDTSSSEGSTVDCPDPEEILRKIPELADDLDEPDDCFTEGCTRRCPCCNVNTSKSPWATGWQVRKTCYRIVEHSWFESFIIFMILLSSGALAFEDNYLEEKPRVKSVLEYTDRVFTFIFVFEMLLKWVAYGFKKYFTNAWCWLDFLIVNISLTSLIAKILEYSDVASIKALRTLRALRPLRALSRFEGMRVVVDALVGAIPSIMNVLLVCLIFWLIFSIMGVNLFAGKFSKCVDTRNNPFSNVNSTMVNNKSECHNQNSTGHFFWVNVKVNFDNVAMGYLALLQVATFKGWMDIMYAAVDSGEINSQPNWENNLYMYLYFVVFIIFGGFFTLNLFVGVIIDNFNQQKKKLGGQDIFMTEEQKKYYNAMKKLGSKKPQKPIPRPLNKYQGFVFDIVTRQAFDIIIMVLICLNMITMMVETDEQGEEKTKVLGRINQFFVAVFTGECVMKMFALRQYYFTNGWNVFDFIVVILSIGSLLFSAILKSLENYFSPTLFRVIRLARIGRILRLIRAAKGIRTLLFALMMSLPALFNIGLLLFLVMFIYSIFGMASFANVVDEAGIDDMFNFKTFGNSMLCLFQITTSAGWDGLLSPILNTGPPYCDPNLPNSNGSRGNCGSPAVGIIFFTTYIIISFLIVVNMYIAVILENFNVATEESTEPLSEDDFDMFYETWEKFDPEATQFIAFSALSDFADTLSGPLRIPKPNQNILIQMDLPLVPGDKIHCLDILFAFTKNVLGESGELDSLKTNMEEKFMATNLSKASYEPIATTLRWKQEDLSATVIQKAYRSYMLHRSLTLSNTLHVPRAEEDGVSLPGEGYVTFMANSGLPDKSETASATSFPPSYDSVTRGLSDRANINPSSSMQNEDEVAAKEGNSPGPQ
Description: Bladder sensory neuron sodium channel current model: whole cell patch-clamp of TTX-R sodium currents. It counts as cell-based. The note with it: 30 μM bath application, 7 minute, holding potential −70 mV, pulse to +10 mV. On the procedure: Labeling of bladder afferent neurons: Adult female Sprague-Dawley rats (150-300 g) were deeply anesthetized with pentobarbital anesthesia and placed on isoflurane maintenance anesthesia. A ventral midline incision was made through the abdominal skin and musculature, exposing the urinary bladder. Five injections of the fluorescent dye Di-I (5 μl each of 25 mg/ml Di-I in DMSO) or Fast Blue (4% w/v) were made into the bladder smooth muscle wall to label primary afferent fibers innervating the bladder. The area was rinsed with sterile saline to eliminate nonspecific spread of dye, and the incision was closed. Rats recovered for 5-12 days to allow for transport of fluorescent dye from distal terminals to the cell somata of dorsal root ganglion (DRG) neurons. Labeled neurons were identified in vitro using fluorescence optics.
Neuronal cultures: Di-I injected rats were euthanized with pentobarbital anesthesia. Lumbar (L6) and sacral (S1) DRG were dissected from the vertebral column and placed in Dulbecco's modified Eagles medium (DMEM) containing 0.3% collagenase B for 60 min at 37° C. The cell solution was exchanged for a 0.25% trypsin in calcium/magnesium-free Dulbecco's phosphate-buffered saline solution, and further digested for 30 min at 37° C. Following a wash in fresh DMEM, ganglia were dissociated by a series of triturations using fire-polished Pasteur pipettes. DRG cells were plated on polylysine-treated glass coverslips. Cells were plated at a density of 0.5 DRG per coverslip in 1 ml DMEM supplemented with 10% FBS, NGF, and 100 U/ml penicillin/streptomycin. All experimental procedures involving rats were conducted under a protocol approved by an Institutional Animal Care and Use Committee. Small variations in the concentrations of reagents, incubation times, etc. may occur and are expected to give similar results.
In most experiments, neurons were incubated in culture medium containing the FITC-labeled lectin BSI-B4 (IB4, […]) at 37° C. for 5 min before recording. The coverslip was washed with extracellular recording solution for 1 min before being placed in a recording chamber mounted on the stage of an inverted microscope equipped with fluorescence optics.
Electrophysiology: Electrophysiologic evaluation of neurons occurred within 4-48 h of plating. Whole cell patch-clamp recordings were obtained from dye-labeled DRG neurons. Recordings were obtained in an extracellular recording solution (pH 7.4, 295-320 mosM) consisting of (in mM) 140 NaCl, 3 KCl, 1 CaCl2, 1 MgCl2, 0.1 CdCl2, 10 HEPES, and 10 glucose. Patch-clamp electrodes were pulled from borosilicate glass and fire polished to 2-6 MOhm tip resistance. The internal pipette recording solution (pH 7.3, 290-300 mosM) consisted of (in mM) 140 CsCl, 10 NaCl, 1 EGTA, and 10 HEPES. Tetrodotoxin (TTX, 0.3 uM) was included in the extracellular solution to block TTX-sensitive sodium currents. Variations in the concentrations and types of reagents used for solutions may occur and are expected to give similar results.
Sodium currents were recorded from DRG neurons using standard electrophysiologic protocols. Neurons were typically voltage-clamped at −50 mV. Currents were recorded using a patch-clamp amplifier and digitized at 3-10 kHz for acquisition. Neuronal input resistance and membrane capacitance were determined from the amplitude and kinetics of the current response to a voltage pulse from a holding potential of −50 mV. Series resistance was compensated 75-95% for all recordings. Leak currents were cancelled online using a standard P/4 protocol. Depolarizing steps from −90, −70, or −50 mV to 0 mV were delivered every 5 or 30 sec during drug application to determine the effects of drugs on sodium currents. For all cell types, baseline responses were recorded for a minimum of 10 min to ensure that the kinetics of the response was stable. A wash out or recovery period usually followed the drug application period. […]
(In general: In patch-clamp work, channel activity is measured electrically.)

With `Nc1nnc(-c2cccc(Cl)c2Cl)c(N)n1` [Lamotrigine, 6-(2,3-Dichlorophenyl)-1,2,4-triazine-3,5-diamine], the “peak sodium current amplitude, fast (17 Hz) versus slow (0.2 Hz) stimulation” value in assay [1] was “decreased to a greater extent under fast stimulation conditions”.

Take `CC1(C)O[C@@H]2[C@@H](CO[C@@]3(COS(N)(=O)=O)OC(C)(C)O[C@@H]23)O1` [Topiramate, 2,3:4,5-Bis-O-(1-methylethylidene)-1-O-sulfamoyl-beta-D-fructopyranose]: the “post-test: reversal of bladder capacity reduction” value in assay [2] (100 mg/kg dose, rats) was “statistically significant reversal of bladder capacity reduction”. Moreover, the “effect on bladder capacity (reversal of acetic acid-induced reduction)” value in assay [2] is “capable of partially reversing the reduction in bladder capacity caused by acetic acid in a dose-dependent fashion; also recorded: dose-dependent and statistically significant reversal”; in assay [2] (listed as topiramate) it was “dose-dependent, statistically significant increases in bladder capacity”. The “effect on inward TTX-R sodium current” value in assay [3] was “blocked the current”.
